Legend:
Staphylococcus aureus [1] = assay: Sensitivity of Staphylococcus aureus isolated from lactating Holstein bovine subclinical mastitis model at 5 ug/disk after 20 hrs; format: functional; conditions: read-out: IZ
Staphylococcus aureus [2] = assay: Resistance of Staphylococcus aureus isolated from lactating Holstein bovine subclinical mastitis model at 5 ug/disk after 20 hrs; format: functional
Staphylococcus aureus [3] = assay: Sensitivity of Staphylococcus aureus isolated from lactating Holstein bovine subclinical mastitis model at 30 ug/disk after 20 hrs; format: functional; conditions: read-out: IZ
Staphylococcus aureus [4] = assay: Resistance of Staphylococcus aureus isolated from lactating Holstein bovine subclinical mastitis model at 30 ug/disk after 20 hrs; format: functional
Staphylococcus = assay: Antibacterial activity against coagulase-negative Staphylococcus infected in lactating Holstein bovine subclinical mastitis model assessed as reduction in intramammary infections at 2.5X10'6 IU, intramammary dosed after morning milking relative to control; format: functional; parameters: scale not given: the % may be the effect or the level left
Bos taurus [5] = assay: Antiinflammatory activity in lactating Holstein bovine subclinical mastitis model assessed as reduction in number of mammary gland quarters with somatic cell count of >=5X10'5/ml at 2.5X10'6 IU, intramammary dosed after morning milking measured after 1 week; format: functional; parameters: scale not given: the % may be the effect or the level left
Bos taurus [6] = assay: Antiinflammatory activity in lactating Holstein bovine subclinical mastitis model assessed as reduction in number of mammary gland quarters with somatic cell count of >=5X10'5/ml at 2.5X10'6 IU, intramammary dosed after morning milking measured after 2 weeks; format: functional; parameters: scale not given: the % may be the effect or the level left
Staphylococcus aureus [7] = assay: Antibacterial activity against Staphylococcus aureus isolated from milk of Holstein bovine subclinical mastitis model after 2 hrs; format: functional
Staphylococcus aureus [8] = assay: Antibacterial activity against Staphylococcus aureus in lactating Holstein bovine subclinical mastitis model assessed as reduction in intramammary infections at 2.5X10'6 IU, intramammary dosed after morning milking relative to control; format: functional; parameters: scale not given: the % may be the effect or the level left
Bos taurus [9] = assay: Antiinflammatory activity in lactating Holstein bovine subclinical mastitis model assessed as reduction in N-acetyl-beta-D-[…] activity at 2.5X10'6 IU, intramammary dosed after morning milking measured after 2 weeks; format: functional
Bos taurus [10] = assay: Antiinflammatory activity in lactating Holstein bovine subclinical mastitis model assessed as reduction in N-acetyl-beta-D-[…] activity at 2.5X10'6 IU, intramammary dosed after morning milking measured after 1 week; format: functional
Streptococcus agalactiae = assay: Antibacterial activity against Streptococcus agalactiae in lactating Holstein bovine subclinical mastitis model assessed as reduction in intramammary infections at 2.5X10'6 IU, intramammary dosed after morning milking relative to control; format: functional; parameters: scale not given: the % may be the effect or the level left
[11] = Drug level in milk of lactating bovine subclinical mastitis model at 2.5X10'6 IU after 24 hrs; format: ADME, Bos taurus; conditions: cattle
[12] = Drug level in milk of lactating Holstein bovine mastitis model at 2.5X10'6 IU, intramammary administered once daily for 3 days measured after 48 hrs; format: ADME, Bos taurus; conditions: cattle, other
[13] = Drug level in milk of lactating bovine subclinical mastitis model at 2.5X10'6 IU after 48 hrs; format: ADME, Bos taurus; conditions: cattle
Bos taurus [14] = assay: Toxicity in Holstein bovine assessed as decreased milk yeild at 1.25X10'6 IU, intramammary dosed in left hindquarter of mammary gland of mammary gland after morning milking by irritancy test; format: organism-based; conditions: cattle, in vivo, other
Bos taurus [15] = assay: Toxicity in intramammary dosed Holstein bovine assessed as increase in somatic cell count in dosed after morning milking by irritancy test; format: organism-based; conditions: cattle, other
Bos taurus [16] = assay: Toxicity in Holstein bovine assessed as visible local reaction with swollen and tender mammary gland at 5X10'6 IU, intramammary dosed in right forequarter of mammary gland after morning milking by irritancy test; format: organism-based; conditions: cattle, in vivo, other
Bos taurus [17] = assay: Toxicity in Holstein bovine assessed as visible local reaction at 2.5X10'6 IU, intramammary dosed in right hindquarter of mammary gland after morning milking by irritancy test; format: organism-based; conditions: cattle, in vivo, other
Bos taurus [18] = assay: Toxicity in Holstein bovine assessed as decreased milk yeild with clots and flakes in milk at 5X10'6 IU, intramammary dosed in right forequarter of mammary gland after morning milking by irritancy test; format: organism-based; conditions: cattle, in vivo, other
Bos taurus [19] = assay: Toxicity in intramammary dosed Holstein bovine assessed as increase in N-acetyl-beta-D-[…] in milk dosed after morning milking by irritancy test; format: organism-based; conditions: cattle, in vivo, other
[20] = Drug level in milk of lactating bovine clinical mastitis model at 2.5X10'6 IU, intramammary dosed twice daily for 3 days measured after 12 hrs; format: ADME, organism-based, Bos taurus; conditions: cattle, in vivo, other
Bos taurus [21] = assay: Toxicity in Holstein bovine assessed as visible local reaction at 1.25X10'6 IU, intramammary dosed in left hindquarter of mammary gland after morning milking by irritancy test; format: organism-based; conditions: cattle, in vivo, other
Bos taurus [22] = assay: Toxicity in Holstein bovine assessed as decreased milk yeild at 2.5X10'6 IU, intramammary dosed in right hindquarter of mammary gland after morning milking by irritancy test; format: organism-based; conditions: cattle, in vivo, other
[23] = Drug level in milk of lactating Holstein bovine mastitis model at 2.5X10'6 IU, intramammary administered once daily for 3 days measured after 24 hrs; format: ADME, Bos taurus; conditions: cattle, other
Bos taurus [24] = assay: Toxicity in Holstein bovine assessed as visible local reaction at 5X10'6 IU, intramammary dosed in right forequarter of mammary gland after morning milking after 24 hrs by irritancy test; format: organism-based; conditions: cattle, in vivo, other
Staphylococcus aureus [25] = assay: Sensitivity of Staphylococcus aureus isolated from lactating Holstein bovine subclinical mastitis model at 10 ug/disk after 20 hrs; format: functional; conditions: read-out: IZ
Staphylococcus aureus [26] = assay: Resistance of Staphylococcus aureus isolated from lactating Holstein bovine subclinical mastitis model at 10 ug/disk after 20 hrs; format: functional
[27] = Staphylococcus aureus, 20 h, read-out: IZ

CCn1cc(C(=O)O)c(=O)c2cc(F)c(N3CCNCC3)cc21 [NORFLOXACIN]
zone of inhibition at 5 µg/disc (Staphylococcus aureus [1]): ≥ 17 mm | Activity (Staphylococcus aureus [2]): 75% | zone of inhibition at 5 µg/disc (Staphylococcus aureus [2]; [27]): ≤ 12 mm

Cc1nnc(SCC2=C(C(=O)O)N3C(=O)[C@@H](NC(=O)Cn4cnnn4)[C@H]3SC2)s1 [CEFAZOLIN]
zone of inhibition at 30 µg/disc (Staphylococcus aureus [3]): ≥ 18 mm | Activity (Staphylococcus aureus [4]): 5% | zone of inhibition at 30 µg/disc (Staphylococcus aureus [4]; [27]): ≤ 14 mm

C=C(NC(=O)[C@@H](NC(=O)[C@H](Cc1cnc[nH]1)NC(=O)[C@@H](NC(=O)[C@H](CO)NC(=O)[C@@H]1CS[C@@H](C)[C@H]2NC(=O)[C@H](C)NC(=O)[C@H](NC(=O)[C@H](CCCCN)NC(=O)[C@H](CCSC)NC(=O)[C@H](CC(N)=O)NC(=O)[C@@H]3CS[C@@H](C)[C@@H](NC(=O)[C@H](CCCCN)NC(=O)[C@@H]4CS[C@@H](C)[C@@H](NC(=O)[C@@H]5CSC[C@@H](NC(=O)/C(=C/C)NC(=O)[C@@H](N)[C@@H](C)CC)C(=O)N[C@@H]([C@@H](C)CC)C(=O)NC(=C)C(=O)N[C@@H](CC(C)C)C(=O)N5)C(=O)N5CCC[C@H]5C(=O)NCC(=O)N4)C(=O)NCC(=O)N[C@@H](C)C(=O)N[C@@H](CC(C)C)C(=O)N[C@@H](CCSC)C(=O)NCC(=O)N3)[C@H](C)SC[C@H](NC2=O)C(=O)N[C@@H](CC(N)=O)C(=O)N1)[C@@H](C)CC)C(C)C)C(=O)N[C@@H](CCCCN)C(=O)O
Activity (Staphylococcus): 58.8% | Activity (Bos taurus [5]): 58.7% | Activity (Bos taurus [6]): 70.5% | MIC (Staphylococcus aureus [7]): 75.5 IU/ml | Activity (Staphylococcus aureus [8]): 50% | Activity (Bos taurus [9]): 28.9 U/ml | Activity (Bos taurus [10]): 26.2 U/ml | Activity (Streptococcus agalactiae): 90.9%

C=C(NC(=O)[C@@H](NC(=O)[C@H](Cc1c[nH]cn1)NC(=O)[C@@H](NC(=O)[C@H](CO)NC(=O)[C@@H]1CS[C@@H](C)[C@H]2NC(=O)[C@H](C)NC(=O)[C@H](NC(=O)[C@H](CCCCN)NC(=O)[C@H](CCSC)NC(=O)[C@H](CC(N)=O)NC(=O)[C@@H]3CS[C@@H](C)[C@@H](NC(=O)[C@H](CCCCN)NC(=O)[C@@H]4CS[C@@H](C)[C@@H](NC(=O)[C@@H]5CSC[C@@H](NC(=O)/C(=C/C)NC(=O)[C@@H](N)[C@@H](C)CC)C(=O)N[C@@H]([C@@H](C)CC)C(=O)NC(=C)C(=O)N[C@@H](CC(C)C)C(=O)N5)C(=O)N5CCC[C@H]5C(=O)NCC(=O)N4)C(=O)NCC(=O)N[C@@H](C)C(=O)N[C@@H](CC(C)C)C(=O)N[C@@H](CCSC)C(=O)NCC(=O)N3)[C@H](C)SC[C@H](NC2=O)C(=O)N[C@@H](CC(N)=O)C(=O)N1)[C@@H](C)CC)C(C)C)C(=O)N[C@@H](CCCCN)C(=O)O
Activity [11]: 83 IU/ml | Drug uptake [12]: 5.7 IU/ml | Drug uptake [13]: 15 IU/ml | Activity (Bos taurus [14]): Non-toxic | Activity (Bos taurus [15]): Dose-dependent effect | Activity (Bos taurus [16]): Toxic | Activity (Bos taurus [17]): Non-toxic | Activity (Bos taurus [18]): Toxic | Activity (Bos taurus [19]): Dose-dependent effect | Drug uptake [20]: 4.5 IU/ml | Activity (Bos taurus [21]): Non-toxic | Activity (Bos taurus [22]): Non-toxic | Drug uptake [23]: 75.8 IU/ml | Activity (Bos taurus [24]): Toxic

CC1(C)S[C@@H]2[C@H](NC(=O)Cc3ccccc3)C(=O)N2[C@H]1C(=O)O [PENICILLIN G]
zone of inhibition at 10 µg/disc (Staphylococcus aureus [25]): ≥ 29 mm | Activity (Staphylococcus aureus [26]): 80% | zone of inhibition at 10 µg/disc (Staphylococcus aureus [26]; [27]): ≤ 28 mm

GENTAMICIN
Activity (Staphylococcus aureus [26]): 45%

— ChEMBL document CHEMBL1154401, “Therapeutic effect of nisin Z on subclinical mastitis in lactating cows” (Antimicrob Agents Chemother, 2007)
